Measured values published in patent US20100184596A1, “METHOD FOR THE CONTROL OF WEEDS IN TURF” (SYNGENTA CROP PROTECTION, INC., priority 2007, published 2010).

Experiments:
Type in all cases: in vivo
[1] = system: Perennial ryegrass/fine fescue mix; experiment: Phytotoxicity via post emergence spray application (Table B2.4)
Description: The phytotoxicity of the compound of formula I to turfgrass species was tested. The compound was applied via post emergence spray to a range of warm and cool season turfgrass species at various rates and spray treatment treatment regimes. Percentage phytotoxicity assessments were taken at various timepoints.

[2] = system: Perennial ryegrass v. blend of Bright Star, Citation Fore and Quick Trans; experiment: Phytotoxicity via granule application, various inert granules (Table B3.4); settings: 8 DAT
Description: The phytotoxicity of the compound of formula I to turfgrass species was tested. The compound was applied by distribution of granule formulations of formula I, post emergence, to turfgrass species at two rates. All treatments were watered-in 1 day after application. Percentage phytotoxicity assessments were taken at various timepoints.
In Tables B3.3 and B3.4, the granular formulations tested were made by spraying the compound of formula I onto various inert granules. In each of these trials, the granule formulations were tested at a higher rate than the corresponding spray application

[3] = system: Bermudagrass v. Tifway 419; experiment: Phytotoxicity in combination with safeners, post emergence spray (Table B4.3); settings: no safener, 100 g ai/ha
Description: (§1) The phytotoxicity to turfgrass of the compound of formula I in combination with various safeners was tested. The combinations were applied by post emergence spray application. Percentage phytotoxicity assessments were taken at various timepoints. The safeners tested in these trials were cloquintocet-mexyl, cyprosulfamide, a compound of formula 2.3, and isoxadifen-ethyl.

Tall fescue v. Coronado = experiment: Phytotoxicity of granule formulations with safeners (Table B4.4); settings: 8 DAT
Description: as §1
(§2) Tables B4.4 and B4.5 present the results of trials using safeners applied in combination with granule formulations of the compound of formula I.

[4] = system: Perennial ryegrass v. blend of Bright Star, Citation Fore and Quick Trans; experiment: Phytotoxicity of granule formulations with safeners (Table B4.5); settings: 8 DAT
Description: as §1, §2

[5] = system: Richardia scabra (Florida Pusley); experiment: Weed control via post emergence spray, in common centipedegrass (Table B5.2)
Description: (§3) The weed control efficacy of the compound of formula I was tested. The compound was applied via post emergence spray to a range of weeds, at various rates and spray treatment treatment regimes. Percentage weed control assessments were taken at various timepoints.

[6] = system: Digitaria ischaemum (smooth crabgrass); experiment: Weed control via post emergence spray, in bluegrass/fescue mix (Table B5.7)
Description: as §3

COCCOCc1nc(C(F)(F)F)ccc1C(=O)C1=C(O)C2CCC(C2)C1=O (stereo not shown) [Formula I, 4-Hydroxy-3-[2-(2-methoxyethoxymethyl)-6-trifluoromethylpyridine-3-carbonyl]-bicyclo[3.2.1]oct-3-en-2-one]
% phytotoxicity ([1]; 1 appl, 140 g ai/ha, 6 DAT): 4.00% | % phytotoxicity ([1]; 1 appl, 140 g ai/ha, 14 DAT): 18.75% | % phytotoxicity ([1]; 1 appl, 140 g ai/ha, 21 DAT): 6.75% | % phytotoxicity ([1]; 1 appl, 140 g ai/ha, 28 DAT): 2.50% | % phytotoxicity ([1]; 1 appl, 140 g ai/ha, 34 DAT): 0.50% | % phytotoxicity ([1]; 1 appl, 140 g ai/ha, 39 DAT): 0.00% | % phytotoxicity ([1]; 1 appl, 140 g ai/ha, 49 DAT): 3.75% | % phytotoxicity ([1]; 1 appl, 280 g ai/ha, 6 DAT): 4.50% | % phytotoxicity ([1]; 1 appl, 280 g ai/ha, 14 DAT): 25.00% | % phytotoxicity ([1]; 1 appl, 280 g ai/ha, 21 DAT): 6.25% | % phytotoxicity ([1]; 1 appl, 280 g ai/ha, 28 DAT): 1.75% | % phytotoxicity ([1]; 1 appl, 280 g ai/ha, 34 DAT): 1.25% | % phytotoxicity ([1]; 1 appl, 280 g ai/ha, 39 DAT): 0.00% | % phytotoxicity ([1]; 1 appl, 280 g ai/ha, 49 DAT): 0.00% | % phytotoxicity ([1]; 2 appl, 140 g ai/ha, 6 DAT): 3.00% | % phytotoxicity ([1]; 2 appl, 140 g ai/ha, 14 DAT): 20.00% | % phytotoxicity ([1]; 2 appl, 140 g ai/ha, 21 DAT): 6.75% | % phytotoxicity ([1]; 2 appl, 140 g ai/ha, 28 DAT): 2.75% | % phytotoxicity ([1]; 2 appl, 140 g ai/ha, 34 DAT): 10.50% | % phytotoxicity ([1]; 2 appl, 140 g ai/ha, 39 DAT): 8.75% | % phytotoxicity ([1]; 2 appl, 140 g ai/ha, 49 DAT): 4.25% | % phytotoxicity ([1]; 2 appl, 280 g ai/ha, 6 DAT): 3.50% | % phytotoxicity ([1]; 2 appl, 280 g ai/ha, 14 DAT): 28.75% | % phytotoxicity ([1]; 2 appl, 280 g ai/ha, 21 DAT): 11.00% | % phytotoxicity ([1]; 2 appl, 280 g ai/ha, 28 DAT): 17.50% | % phytotoxicity ([1]; 2 appl, 280 g ai/ha, 34 DAT): 22.50% | % phytotoxicity ([1]; 2 appl, 280 g ai/ha, 39 DAT): 23.75% | % phytotoxicity ([1]; 2 appl, 280 g ai/ha, 49 DAT): 10.00% | % phytotoxicity ([2]; Agsorb LUM GA granule, 520 g ai/ha): 20.0% | % phytotoxicity ([2]; Agsorb LUM MS granule, 520 g ai/ha): 5.8% | % phytotoxicity ([2]; Agsorb RUM GA granule, 520 g ai/ha): 18.8% | % phytotoxicity ([2]; Bio Dac granule, 520 g ai/ha): 13.3% | % phytotoxicity ([2]; DG Lite granule, 520 g ai/ha): 18.8% | % phytotoxicity ([2]; Eco Gran granule, 520 g ai/ha): 18.8% | % phytotoxicity ([2]; Non dispersing extruded granules, 520 g ai/ha): 18.8% | % phytotoxicity ([2]; Oil dry, 520 g ai/ha): 6.3% | % phytotoxicity ([2]; Spray, 260 g ai/ha): 31.3% | % phytotoxicity ([3]; 7 DAT): 56.70% | % phytotoxicity ([3]; 11 DAT): 38.30% | % phytotoxicity ([3]; 18 DAT): 9.30% | % phytotoxicity (Tall fescue v. Coronado; DG Lite granule, no safener, 680 g ai/ha): 20.0% | % phytotoxicity (Tall fescue v. Coronado; DG Lite granule, safener Cyprosulfamide (0.07%), 680 g ai/ha): 22.5% | % phytotoxicity (Tall fescue v. Coronado; DG Lite granule, safener Formula 2.3 (0.07%), 680 g ai/ha): 16.3% | % phytotoxicity (Tall fescue v. Coronado; DG Lite granule, safener Isoxadifen (0.07%), 680 g ai/ha): 21.3% | % phytotoxicity (Tall fescue v. Coronado; Spray, no safener, 340 g ai/ha): 18.8% | % phytotoxicity ([4]; DG Lite granule, no safener, 520 g ai/ha): 18.8% | % phytotoxicity ([4]; DG Lite granule, safener Cyprosulfamide (0.07%), 520 g ai/ha): 21.3% | % phytotoxicity ([4]; DG Lite granule, safener Formula 2.3 (0.07%), 520 g ai/ha): 20.0% | % phytotoxicity ([4]; DG Lite granule, safener Isoxadifen (0.07%), 520 g ai/ha): 21.3% | % phytotoxicity ([4]; Spray, no safener, 260 g ai/ha): 31.3% | % control ([5]; 1 appl, 140 g ai/ha, 5 DAT): 16.67% | % control ([5]; 1 appl, 140 g ai/ha, 13 DAT): 25.00% | % control ([5]; 1 appl, 140 g ai/ha, 21 DAT): 33.33% | % control ([5]; 1 appl, 140 g ai/ha, 27 DAT): 33.33% | % control ([5]; 1 appl, 140 g ai/ha, 35 DAT): 23.33% | % control ([5]; 1 appl, 140 g ai/ha, 42 DAT): 16.67% | % control ([5]; 1 appl, 140 g ai/ha, 61 DAT): 13.33% | % control ([5]; 1 appl, 280 g ai/ha, 5 DAT): 20.00% | % control ([5]; 1 appl, 280 g ai/ha, 13 DAT): 36.67% | % control ([5]; 1 appl, 280 g ai/ha, 21 DAT): 46.67% | % control ([5]; 1 appl, 280 g ai/ha, 27 DAT): 41.67% | % control ([5]; 1 appl, 280 g ai/ha, 35 DAT): 38.33% | % control ([5]; 1 appl, 280 g ai/ha, 42 DAT): 28.33% | % control ([5]; 1 appl, 280 g ai/ha, 61 DAT): 38.33% | % control ([5]; 2 appl, 140 g ai/ha, 5 DAT): 16.67% | % control ([5]; 2 appl, 140 g ai/ha, 13 DAT): 20.00% | % control ([5]; 2 appl, 140 g ai/ha, 21 DAT): 41.67% | % control ([5]; 2 appl, 140 g ai/ha, 27 DAT): 33.33% | % control ([5]; 2 appl, 140 g ai/ha, 35 DAT): 60.00% | % control ([5]; 2 appl, 140 g ai/ha, 42 DAT): 53.33% | % control ([5]; 2 appl, 140 g ai/ha, 61 DAT): 8.33% | % control ([5]; 2 appl, 280 g ai/ha, 5 DAT): 16.67% | % control ([5]; 2 appl, 280 g ai/ha, 13 DAT): 28.33% | % control ([5]; 2 appl, 280 g ai/ha, 21 DAT): 46.67% | % control ([5]; 2 appl, 280 g ai/ha, 27 DAT): 35.00% | % control ([5]; 2 appl, 280 g ai/ha, 35 DAT): 61.67% | % control ([5]; 2 appl, 280 g ai/ha, 42 DAT): 61.67% | % control ([5]; 2 appl, 280 g ai/ha, 61 DAT): 16.67% | % control ([6]; 10 g ai/ha, 7 DAT): 0.00% | % control ([6]; 10 g ai/ha, 14 DAT): 0.00% | % control ([6]; 10 g ai/ha, 22 DAT): 0.00% | % control ([6]; 10 g ai/ha, 29 DAT): 0.00% | % control ([6]; 10 g ai/ha, 46 DAT): 1.25% | % control ([6]; 20 g ai/ha, 7 DAT): 0.00% | % control ([6]; 20 g ai/ha, 14 DAT): 2.50% | % control ([6]; 20 g ai/ha, 22 DAT): 5.00% | % control ([6]; 20 g ai/ha, 29 DAT): 3.75% | % control ([6]; 20 g ai/ha, 46 DAT): 7.50% | % control ([6]; 40 g ai/ha, 7 DAT): 0.00% | % control ([6]; 40 g ai/ha, 14 DAT): 0.00% | % control ([6]; 40 g ai/ha, 22 DAT): 2.50% | % control ([6]; 40 g ai/ha, 29 DAT): 8.75% | % control ([6]; 40 g ai/ha, 46 DAT): 30.00% | % control ([6]; 80 g ai/ha, 7 DAT): 0.00% | % control ([6]; 80 g ai/ha, 14 DAT): 0.00% | % control ([6]; 80 g ai/ha, 22 DAT): 5.00% | % control ([6]; 80 g ai/ha, 29 DAT): 17.50% | % control ([6]; 80 g ai/ha, 46 DAT): 51.25% | % control ([6]; 160 g ai/ha, 7 DAT): 0.00% | % control ([6]; 160 g ai/ha, 14 DAT): 6.25% | % control ([6]; 160 g ai/ha, 22 DAT): 8.75% | % control ([6]; 160 g ai/ha, 29 DAT): 20.00% | % control ([6]; 160 g ai/ha, 46 DAT): 70.00%
